# Tests used:
# [1] = Oral bioavailability in Wistar rat at 5 mg/kg; format: ADME, organism-based; conditions: in vivo
# [2] = Cmax in Wistar rat at 5 mg/kg, po; format: ADME, organism-based; parameters: dose 5 mg/kg, route oral; conditions: in vivo
# [3] = test system: Plasmodium falciparum; assay: microbe, parasite or virus in culture; conditions: NF54, 72 h
# [4] = test system: Plasmodium falciparum; assay: microbe, parasite or virus in culture; conditions: K1, 72 h
# [5] = Clearance in rat hepatocytes assessed per 1E6 cells; format: ADME, cell-based, Hepatocyte; conditions: read-out: CLH
# [6] = AUC (0 to 23 hrs) in Plasmodium falciparum 3D70087/N9 infected NODscidIL2Rgamma-null mouse at 50 mg/kg, po by LC-MS/MS analysis; format: ADME, organism-based; parameters: time < 23 hr, dose 50 mg/kg, route oral; conditions: plasma
# [7] = test system: Plasmodium falciparum; assay: Antiplasmodial activity against Plasmodium falciparum 3D70087/N9 infected in po dosed NODscidIL2Rgamma-null mouse assessed as reduction of parasite level in peripheral blood qd for 4 days by flow cytometry analysis; format: functional; conditions: 96 h
# [8] = test system: Mus musculus; assay: AUC (0 to 23 hrs) in Plasmodium falciparum 3D70087/N9 infected NODscidIL2Rgamma-null mouse at 10 mg/kg, po by LC-MS/MS analysis; conditions: in vivo
# [9] = test system: Plasmodium berghei; assay: Antiplasmodial activity against Plasmodium berghei ANKA expressing GFP infected in BALB/c mouse assessed as host survival days at 50 mg/kg, po qd for 4 days; format: functional
# [10] = Cmax in Plasmodium falciparum 3D70087/N9 infected NODscidIL2Rgamma-null mouse at 50 mg/kg, po by LC-MS/MS analysis; format: ADME, organism-based; parameters: dose 50 mg/kg, route oral; conditions: in vivo
# [11] = test system: Mus musculus; assay: Dose normalized Cmax in Plasmodium falciparum 3D70087/N9 infected NODscidIL2Rgamma-null mouse at 30 mg/kg, po by LC-MS/MS analysis; format: ADME, organism-based; parameters: dose 30 mg/kg, route oral; conditions: in vivo
# [12] = AUC (0 to 23 hrs) in Plasmodium falciparum 3D70087/N9 infected NODscidIL2Rgamma-null mouse at 3 mg/kg, po by LC-MS/MS analysis; format: ADME, organism-based; parameters: time < 23 hr, dose 3 mg/kg, route oral; conditions: plasma
# [13] = test system: Plasmodium berghei; assay: Antiplasmodial activity against Plasmodium berghei ANKA expressing GFP infected in BALB/c mouse assessed as reduction of viable parasites at 50 mg/kg, po qd for 4 days by flow cytometry; format: functional
# [14] = Lipophilicity, log D of the compound; format: physicochemical; conditions: octanol/water
# [15] = molecular target: Cytochrome P450 3A4 (Homo sapiens, UniProt P08684); assay: Inhibition of CYP3A4 (unknown origin); format: ADME
# [16] = Tmax in Plasmodium falciparum 3D70087/N9 infected NODscidIL2Rgamma-null mouse at 50 mg/kg, po by LC-MS/MS analysis; format: ADME, organism-based; parameters: dose 50 mg/kg, route oral; conditions: in vivo
# [17] = test system: Mus musculus; assay: Dose normalized Cmax in Plasmodium falciparum 3D70087/N9 infected NODscidIL2Rgamma-null mouse at 3 mg/kg, po by LC-MS/MS analysis; format: ADME, organism-based; parameters: dose 3 mg/kg, route oral; conditions: in vivo
# [18] = test system: Mus musculus; assay: AUC (0 to 23 hrs) in Plasmodium falciparum 3D70087/N9 infected NODscidIL2Rgamma-null mouse at 50 mg/kg, po by LC-MS/MS analysis; conditions: in vivo
# [19] = Tmax in Plasmodium falciparum 3D70087/N9 infected NODscidIL2Rgamma-null mouse at 30 mg/kg, po by LC-MS/MS analysis; format: ADME, organism-based; parameters: dose 30 mg/kg, route oral; conditions: in vivo
# [20] = Clearance in human liver microsomes; format: ADME; conditions: read-out: CLH
# [21] = Fraction unbound in human plasma; format: ADME, cell-free
# [22] = Tmax in Plasmodium falciparum 3D70087/N9 infected NODscidIL2Rgamma-null mouse at 3 mg/kg, po by LC-MS/MS analysis; format: ADME, organism-based; parameters: dose 3 mg/kg, route oral; conditions: in vivo
# [23] = Half life in Wistar rat at 5 mg/kg, po; format: ADME, organism-based; parameters: dose 5 mg/kg, route oral; conditions: in vivo
# [24] = AUC in Wistar rat at 1 mg/kg, iv; format: ADME, organism-based; parameters: dose 1 mg/kg, route intravenous; conditions: plasma
# [25] = Volume of distribution at steady state in Wistar rat at 1 mg/kg, iv; format: ADME, organism-based; parameters: dose 1 mg/kg, route intravenous; conditions: in vivo, read-out: Vdss
# [26] = test system: Mus musculus; assay: Dose normalized AUC (0 to 23 hrs) in Plasmodium falciparum 3D70087/N9 infected NODscidIL2Rgamma-null mouse at 3 mg/kg, po by LC-MS/MS analysis; format: ADME, organism-based; parameters: dose 3 mg/kg, route oral; conditions: in vivo
# [27] = test system: Mus musculus; assay: AUC at ED90 in po dosed Plasmodium falciparum 3D70087/N9 infected NODscidIL2Rgamma-null mouse after 7 days; format: ADME, organism-based, Plasma; conditions: in vivo, 168 h
# [28] = Aqueous solubility of the compound; format: physicochemical; conditions: buffer
# [29] = Cmax in Plasmodium falciparum 3D70087/N9 infected NODscidIL2Rgamma-null mouse at 10 mg/kg, po by LC-MS/MS analysis; format: ADME, organism-based; parameters: dose 10 mg/kg, route oral; conditions: in vivo
# [30] = molecular target: Cytochrome P450 2C19 (Homo sapiens, UniProt P33261); assay: Inhibition of CYP2C19 (unknown origin); format: ADME
# [31] = test system: Mus musculus; assay: Dose normalized Cmax in Plasmodium falciparum 3D70087/N9 infected NODscidIL2Rgamma-null mouse at 10 mg/kg, po by LC-MS/MS analysis; format: ADME, organism-based; parameters: dose 10 mg/kg, route oral; conditions: in vivo
# [32] = AUC (0 to 23 hrs) in Plasmodium falciparum 3D70087/N9 infected NODscidIL2Rgamma-null mouse at 30 mg/kg, po by LC-MS/MS analysis; format: ADME, organism-based; parameters: time < 23 hr, dose 30 mg/kg, route oral; conditions: plasma
# [33] = Tmax in Plasmodium falciparum 3D70087/N9 infected NODscidIL2Rgamma-null mouse at 10 mg/kg, po by LC-MS/MS analysis; format: ADME, organism-based; parameters: dose 10 mg/kg, route oral; conditions: in vivo
# [34] = AUC (0 to 23 hrs) in Plasmodium falciparum 3D70087/N9 infected NODscidIL2Rgamma-null mouse at 10 mg/kg, po by LC-MS/MS analysis; format: ADME, organism-based; parameters: time < 23 hr, dose 10 mg/kg, route oral; conditions: plasma
# [35] = test system: Mus musculus; assay: AUC (0 to 23 hrs) in Plasmodium falciparum 3D70087/N9 infected NODscidIL2Rgamma-null mouse at 30 mg/kg, po by LC-MS/MS analysis; conditions: in vivo
# [36] = molecular target: Cytochrome P450 2D6 (Homo sapiens, UniProt P10635); assay: Inhibition of CYP2D6 (unknown origin); format: ADME
# [37] = Half life in Wistar rat at 1 mg/kg, iv; format: ADME, organism-based; parameters: dose 1 mg/kg, route intravenous; conditions: in vivo
# [38] = Clearance in Wistar rat at 1 mg/kg, iv; format: ADME, organism-based; parameters: dose 1 mg/kg, route intravenous; conditions: in vivo
# [39] = test system: Mus musculus; assay: Dose normalized Cmax in Plasmodium falciparum 3D70087/N9 infected NODscidIL2Rgamma-null mouse at 50 mg/kg, po by LC-MS/MS analysis; format: ADME, organism-based; parameters: dose 50 mg/kg, route oral; conditions: in vivo
# [40] = Cmax in Plasmodium falciparum 3D70087/N9 infected NODscidIL2Rgamma-null mouse at 3 mg/kg, po by LC-MS/MS analysis; format: ADME, organism-based; parameters: dose 3 mg/kg, route oral; conditions: in vivo
# [41] = Selectivity index, ratio of IC50 for human A549 cells to IC50 for Plasmodium falciparum; format: toxicity, cell-based; conditions: read-out: Ratio IC50
# [42] = Clearance in mouse liver microsomes; format: ADME; conditions: read-out: CLH
# [43] = Cmax in Plasmodium falciparum 3D70087/N9 infected NODscidIL2Rgamma-null mouse at 30 mg/kg, po by LC-MS/MS analysis; format: ADME, organism-based; parameters: dose 30 mg/kg, route oral; conditions: in vivo
# [44] = molecular target: Cytochrome P450 2C9 (Homo sapiens, UniProt P11712); assay: Inhibition of CYP2C9 (unknown origin); format: ADME
# [45] = molecular target: T1, Cytochrome P450 1A2 (Homo sapiens, UniProt P05177); assay: Inhibition of CYP1A2 (unknown origin); format: ADME
# T1 sequence (P05177 whole entry): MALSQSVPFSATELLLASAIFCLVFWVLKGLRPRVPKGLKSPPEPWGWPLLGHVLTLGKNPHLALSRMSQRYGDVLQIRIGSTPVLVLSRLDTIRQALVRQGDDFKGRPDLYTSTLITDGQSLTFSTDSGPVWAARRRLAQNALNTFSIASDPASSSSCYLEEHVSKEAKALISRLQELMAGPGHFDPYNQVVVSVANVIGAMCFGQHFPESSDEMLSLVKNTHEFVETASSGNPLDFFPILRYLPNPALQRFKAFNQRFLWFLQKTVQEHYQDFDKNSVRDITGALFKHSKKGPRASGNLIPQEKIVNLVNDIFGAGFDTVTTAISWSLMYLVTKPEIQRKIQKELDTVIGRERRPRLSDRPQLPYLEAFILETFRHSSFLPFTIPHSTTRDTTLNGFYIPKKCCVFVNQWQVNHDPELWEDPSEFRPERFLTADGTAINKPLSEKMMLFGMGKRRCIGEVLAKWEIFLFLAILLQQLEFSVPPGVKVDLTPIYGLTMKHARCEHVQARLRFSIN
# [46] = molecular target: Voltage-gated inwardly rectifying potassium channel KCNH2 (Homo sapiens, UniProt Q12809); assay: Inhibition of human ERG
# Sequence of Voltage-gated inwardly rectifying potassium channel KCNH2 (Q12809 whole entry): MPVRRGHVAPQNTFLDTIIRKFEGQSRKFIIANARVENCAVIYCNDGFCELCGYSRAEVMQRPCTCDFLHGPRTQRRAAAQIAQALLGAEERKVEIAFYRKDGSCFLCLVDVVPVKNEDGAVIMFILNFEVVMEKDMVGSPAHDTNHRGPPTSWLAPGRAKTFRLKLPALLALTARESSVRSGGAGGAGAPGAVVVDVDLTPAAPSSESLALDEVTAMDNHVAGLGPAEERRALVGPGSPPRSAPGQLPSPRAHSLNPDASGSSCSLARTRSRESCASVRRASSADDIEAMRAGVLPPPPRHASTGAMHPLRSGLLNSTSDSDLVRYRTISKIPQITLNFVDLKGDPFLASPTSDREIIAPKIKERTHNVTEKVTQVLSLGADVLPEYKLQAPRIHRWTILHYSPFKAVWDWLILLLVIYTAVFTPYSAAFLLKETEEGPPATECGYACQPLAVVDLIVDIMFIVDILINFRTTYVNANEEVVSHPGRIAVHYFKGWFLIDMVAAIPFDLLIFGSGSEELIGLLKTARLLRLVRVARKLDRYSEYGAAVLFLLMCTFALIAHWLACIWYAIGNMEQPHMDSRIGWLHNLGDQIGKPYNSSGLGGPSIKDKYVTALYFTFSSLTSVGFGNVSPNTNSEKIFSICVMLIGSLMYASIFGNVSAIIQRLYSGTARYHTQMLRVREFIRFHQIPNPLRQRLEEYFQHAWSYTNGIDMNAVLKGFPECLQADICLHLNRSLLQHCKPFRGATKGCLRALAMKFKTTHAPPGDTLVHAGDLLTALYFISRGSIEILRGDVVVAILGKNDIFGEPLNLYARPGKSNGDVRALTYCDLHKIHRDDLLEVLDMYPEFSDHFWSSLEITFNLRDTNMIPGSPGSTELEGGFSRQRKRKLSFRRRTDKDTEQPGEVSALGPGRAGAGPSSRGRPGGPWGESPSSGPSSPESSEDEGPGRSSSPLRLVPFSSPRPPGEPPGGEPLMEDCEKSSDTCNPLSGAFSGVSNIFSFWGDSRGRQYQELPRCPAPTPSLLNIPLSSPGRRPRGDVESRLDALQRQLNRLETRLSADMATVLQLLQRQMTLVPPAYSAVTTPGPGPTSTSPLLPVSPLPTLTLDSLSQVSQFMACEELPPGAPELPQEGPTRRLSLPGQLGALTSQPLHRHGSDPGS
# Sequence of Cytochrome P450 2C9 (P11712 whole entry): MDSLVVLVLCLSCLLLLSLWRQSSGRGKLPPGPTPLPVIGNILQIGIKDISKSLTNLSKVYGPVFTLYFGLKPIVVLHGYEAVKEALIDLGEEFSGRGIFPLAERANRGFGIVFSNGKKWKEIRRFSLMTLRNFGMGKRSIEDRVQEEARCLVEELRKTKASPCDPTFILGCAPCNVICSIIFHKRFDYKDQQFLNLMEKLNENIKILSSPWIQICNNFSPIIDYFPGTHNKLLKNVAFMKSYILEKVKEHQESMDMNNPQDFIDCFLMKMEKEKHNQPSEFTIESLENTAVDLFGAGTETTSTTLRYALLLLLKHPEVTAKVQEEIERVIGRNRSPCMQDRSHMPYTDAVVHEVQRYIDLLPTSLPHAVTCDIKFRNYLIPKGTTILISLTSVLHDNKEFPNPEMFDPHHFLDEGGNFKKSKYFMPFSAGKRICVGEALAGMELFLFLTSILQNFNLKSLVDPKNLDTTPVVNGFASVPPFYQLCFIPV
# Sequence of Cytochrome P450 3A4 (P08684 whole entry): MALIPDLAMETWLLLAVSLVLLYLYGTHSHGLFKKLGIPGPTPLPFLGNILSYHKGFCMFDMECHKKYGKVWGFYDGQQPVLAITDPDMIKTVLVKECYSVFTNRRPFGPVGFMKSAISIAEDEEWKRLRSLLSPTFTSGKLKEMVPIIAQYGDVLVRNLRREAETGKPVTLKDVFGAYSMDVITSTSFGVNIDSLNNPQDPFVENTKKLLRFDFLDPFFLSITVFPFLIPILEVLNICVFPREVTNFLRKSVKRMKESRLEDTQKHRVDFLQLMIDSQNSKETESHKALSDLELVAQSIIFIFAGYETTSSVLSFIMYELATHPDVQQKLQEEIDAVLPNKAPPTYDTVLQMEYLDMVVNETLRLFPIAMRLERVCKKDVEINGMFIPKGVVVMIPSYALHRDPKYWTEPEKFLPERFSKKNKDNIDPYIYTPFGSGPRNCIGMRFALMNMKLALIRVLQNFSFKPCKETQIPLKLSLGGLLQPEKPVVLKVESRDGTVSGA
# Sequence of Cytochrome P450 2D6 (P10635 whole entry): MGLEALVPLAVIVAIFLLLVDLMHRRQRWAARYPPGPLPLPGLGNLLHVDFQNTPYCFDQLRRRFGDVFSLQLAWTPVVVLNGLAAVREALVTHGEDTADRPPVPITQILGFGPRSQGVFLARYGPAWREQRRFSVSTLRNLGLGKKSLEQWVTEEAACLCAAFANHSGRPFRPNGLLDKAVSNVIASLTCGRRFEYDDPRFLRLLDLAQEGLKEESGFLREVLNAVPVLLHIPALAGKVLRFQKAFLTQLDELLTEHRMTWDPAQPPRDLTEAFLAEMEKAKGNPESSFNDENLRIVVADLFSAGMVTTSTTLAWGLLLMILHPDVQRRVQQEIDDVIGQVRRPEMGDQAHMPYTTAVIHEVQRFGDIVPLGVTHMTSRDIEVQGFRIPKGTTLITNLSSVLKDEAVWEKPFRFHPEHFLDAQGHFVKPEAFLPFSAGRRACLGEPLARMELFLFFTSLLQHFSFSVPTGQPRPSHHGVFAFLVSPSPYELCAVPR
# Sequence of Cytochrome P450 2C19 (P33261 whole entry): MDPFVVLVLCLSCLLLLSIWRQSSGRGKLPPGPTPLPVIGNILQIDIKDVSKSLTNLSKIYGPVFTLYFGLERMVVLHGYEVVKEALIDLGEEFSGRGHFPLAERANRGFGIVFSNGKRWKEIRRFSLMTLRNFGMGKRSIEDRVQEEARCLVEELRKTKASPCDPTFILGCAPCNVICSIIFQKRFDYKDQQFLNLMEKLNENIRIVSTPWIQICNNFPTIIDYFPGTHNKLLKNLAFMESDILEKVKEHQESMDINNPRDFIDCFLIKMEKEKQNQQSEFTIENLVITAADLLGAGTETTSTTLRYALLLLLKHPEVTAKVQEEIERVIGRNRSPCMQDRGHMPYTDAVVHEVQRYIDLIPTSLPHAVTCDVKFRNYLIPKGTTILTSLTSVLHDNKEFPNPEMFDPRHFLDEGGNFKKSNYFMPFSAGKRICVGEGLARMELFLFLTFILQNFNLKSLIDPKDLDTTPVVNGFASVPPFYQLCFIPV
compound,measurement,setting,value
CC(Oc1ccc2nc(N)n(CC(O)c3ccc(C(F)(F)F)cc3Cl)c2n1)C(F)(F)F (racemic),bioavailability,[1],100%
same,Cmax,[2],2040 nM
same,IC50,[3],40 nM
same,IC50,[4],5 nM
same,hepatocyte CLint,[5],43 µL/min/1e6 cells
same,AUC(0-t) at 23 h,[6],10400 ng·h/mL
same,ED90,[7],28.6 mg/kg
same,AUC,[8],0.9 µg·h/mL
same,Survival,[9],12 days
same,Cmax,[10],1070 ng/mL
same,Cmax/dose,[11],0.022 µg/mL/mg/kg
same,AUC(0-t) at 23 h,[12],480 ng·h/mL
same,Activity,[13],94%
same,logD,[14],> 4.5
same,IC50,[15],20.3 µM
same,Tmax,[16],4 h
same,Cmax/dose,[17],0.019 µg/mL/mg/kg
same,AUC,[18],3.48 µg·h/mL
same,Tmax,[19],6 h
same,microsomal CLint,[20],32 µL/min/mg
same,fraction unbound,[21],< 0.01
same,Tmax,[22],30 min
same,half-life,[23],430 min
same,AUC,[24],1.66 µM·h
same,Vd,[25],2.49 L/kg
same,AUC/dose,[26],0.16 µg·h/mL/mg/kg
same,AUC,[27],6.55 ug.hr/ml/day
same,solubility,[28],5 µM
same,Cmax,[29],360 ng/mL
same,IC50,[30],4.7 µM
same,Cmax/dose,[31],0.035 µg/mL/mg/kg
same,AUC(0-t) at 23 h,[32],6930 ng·h/mL
same,Tmax,[33],2 h
same,AUC(0-t) at 23 h,[34],2700 ng·h/mL
same,AUC,[35],2.31 µg·h/mL
same,IC50,[36],28.3 µM
same,half-life,[37],106 min
same,clearance,[38],22.6 mL/min/kg
same,Cmax/dose,[39],0.021 µg/mL/mg/kg
same,Cmax,[40],600 ng/mL
same,selectivity ratio,[41],> 325
same,microsomal CLint,[42],19 µL/min/mg
same,Cmax,[43],680 ng/mL
same,IC50,[44],22.9 µM
same,IC50,[45],> 30 µM
same,IC50,[46],> 33.3 µM
